Columns and labels:
Type in all cases: in vivo, rats
[1] = test system: streptozotocin (STZ) induced diabetes animal model; assay: Urine volume and glyceuira (Benedict reagent); set-up: key to Glyceuria: (+++) abundant; (++) moderate; (+) mild; (−) complete absence; conditions: H.G. animals; standard drug
Protocol: (§1) Before utilizing the test drug for human consumption the pre-clinical safety and efficacy profile of single plant candidate extract as well as in combined form was conducted following standard norms. The biological property of test formulation was validated in streptozotocin (STZ) induced diabetes animal model which also helped in evaluation of vascular complications caused due to diabetes. The effect of test drug was assessed on glucose levels, insulin level, glycosylated hemoglobin, and pro-inflammatory cytokines, and the most important bio-marker neopterin including various neuro-psychological assessments. The mechanism based study clearly indicated the neopterin decreasing potential of test formulation which exerted neuro-protective activity, better glycemic control, anti-atherosclerotic, anti-inflammatory, anti-oxidant effects in STZ induced diabetes among the animals. Further, its therapeutic activity has also been validated in neurogenic dementia and other cognitive deficits associated with diabetes mellitus.
Urine was collected from each group separately by using animal metabolic cage, volume of urine collected was measured and glucose executed in urine was detected by Benedict reagent. In which 1 ml of urine and 3 ml of B.R. are added and boiled for 5 minute. The change in color was observed as Red (+++), green coloration (++) yellow coloration (+) and unchanged (−).

[2] = Effect on body weight; conditions: H.G. animals, standard drug, in g (unit assumed)
Protocol: (§2) Before utilizing the test drug for human consumption the pre-clinical safety and efficacy profile of single plant candidate extract as well as in combined form was conducted following standard norms. […] The effect of test drug was assessed on glucose levels, insulin level, glycosylated hemoglobin, and pro-inflammatory cytokines, and the most important bio-marker neopterin including various neuro-psychological assessments.

[3] = test system: Insulin; assay: Insulin secretagogues property in diabetic animals; conditions: H.G. animals; standard drug
Protocol: as §1

[4] = test system: Glycogen; assay: Restoration of glycogen in liver and skeletal muscle; conditions: H.G. animals; standard drug
Protocol: as §2

[5] = test system: F,1-6 bisphosphate; assay: Regulation of key enzymes in gluconeogenesis: F,1-6 bisphosphate; conditions: H.G. animals; standard drug
Protocol: as §1

[6] = test system: Neopterin; assay: Neopterin decreasing property in experimental diabetes; conditions: H.G. animals, standard drug
Protocol: as §1

[7] = test system: Adiponectin; assay: Adiponectin enhancing property in experimental diabetes; conditions: H.G. animals, standard drug
Protocol: as §1, with “mellitus. Adiponectin Enhancing Property of Berberis aristata in Experimental Diabetes” for “mellitus.”

[8] = test system: SOD; assay: Attenuation of oxidative stress: SOD; set-up: SOD, Brain / SOD, Heart / SOD, Liver / SOD, Kidney: unit not given here; conditions: H.G. animals; standard drug
Protocol: as §1, with “mellitus. Attenuation of Oxidative Stress Following Treatment with Test Formulation—Restriction of SOD” for “mellitus.”

[9] = test system: TBARS; assay: Attenuation of oxidative stress: TBARS formation; set-up: TBARS formation, Brain / TBARS formation, Heart / TBARS formation, Liver / TBARS formation, Kidney: unit not given here; conditions: H.G. animals; standard drug
Protocol: as §1, with “mellitus. Attenuation of Oxidative Stress Following Treatment with Test Formation—Reduction in TBARS Formation” for “mellitus.”

[10] = test system: Hemoglobin; assay: Glycation of hemoglobin; conditions: H.G. animals; standard drug
Protocol: Before utilizing the test drug for human consumption the pre-clinical safety and efficacy profile of single plant candidate extract as well as in combined form was conducted following standard norms. […] The effect of test drug was assessed on glucose levels, insulin level, glycosylated hemoglobin, and pro-inflammatory cytokines, and the most important bio-marker neopterin including various neuro-psychological assessments. […] Aldose Reductase Activity and Glycation of Hemoglobin Following Test Formulation Treatment

[11] = test system: Creatinine, Urea; assay: Effect on renal function; conditions: H.G. animals; standard drug
Protocol: as §1, with “mellitus. Effect of Test Formulation on Renal Function” for “mellitus.”

SMILES: CCc1ccc(CCOc2ccc(CC3SC(=O)NC3=O)cc2)nc1 (stereo not drawn) [Pioglitazone]
- Glyceuria [1]: ++
- Urine volume [1]: 13.23 ± 1.18 mL
- Body weight ([2]; 0th Day): 200.00 ± 4.65
- Body weight ([2]; 7th Day): 178.80 ± 4.00
- Body weight ([2]; 14th Day): 169.13 ± 2.84
- Insulin [3]: 105.31 ± 9.10 pg/L
- Glycogen content, Liver [4]: 975.00 ± 43.14 nM/Mg of Tissue
- Glycogen content, Skeletal muscle [4]: 42.02 ± 7.26 nM/Mg of Tissue
- F,1-6 bisphosphate, Kidney [5]: 31.78 ± 3.71 μm/min/mg of protein
- F,1-6 bisphosphate, Liver [5]: 44.33 ± 4.29 μm/min/mg of protein
- Neopterin ([6]; 7th day): 9.13 ± 2.10 nmol/L
- Neopterin ([6]; 14th Day): 8.02 ± 2.01 nmol/L
- Adiponectin ([7]; 7th day): 7.13 ± 2.10 pg/mL
- Adiponectin ([7]; 14th Day): 8.02 ± 2.01 pg/mL
- SOD, Brain [8]: 19.33 ± 3.66
- SOD, Heart [8]: 15.83 ± 5.83
- SOD, Kidney [8]: 16.67 ± 1.86
- SOD, Liver [8]: 13.50 ± 1.76
- SOD, Pancrease [8]: 6.91 ± 0.22
- TBARS formation, Brain [9]: 52.66 ± 3.55
- TBARS formation, Heart [9]: 61.83 ± 4.52
- TBARS formation, Kidney [9]: 56.33 ± 7.93
- TBARS formation, Liver [9]: 82.50 ± 2.84
- TBARS formation, Pancrease [9]: 87.67 ± 7.41
- Glycated Hb [10]: 0.53 ± 0.07 mg/g of Hb
- Hb [10]: 10.09 ± 1.85 g/dL
- Creatinine [11]: 3.20 ± 0.09 mg/dL
- Urea [11]: 48.00 ± 2.00 mg/dL

SMILES: CN(C)C(=N)N=C(N)N [Metformin]
- Glyceuria [1]: +
- Urine volume [1]: 8.95 ± 1.70 mL
- Body weight ([2]; 0th Day): 207.25 ± 6.44
- Insulin [3]: 109.24 ± 12.13 pg/L
- Glycogen content, Liver [4]: 1095.03 ± 63.10 nM/Mg of Tissue
- Glycogen content, Skeletal muscle [4]: 86.98 ± 12.80 nM/Mg of Tissue
- F,1-6 bisphosphate, Kidney [5]: 29.67 ± 5.60 μm/min/mg of protein
- F,1-6 bisphosphate, Liver [5]: 34.59 ± 4.90 μm/min/mg of protein
- Neopterin ([6]; 7th day): 8.90 ± 1.87 nmol/L
- Neopterin ([6]; 14th Day): 9.11 ± 1.39 nmol/L
- Adiponectin ([7]; 7th day): 6.90 ± 1.87 pg/mL
- Adiponectin ([7]; 14th Day): 6.11 ± 1.39 pg/mL
- SOD, Brain [8]: 19.83 ± 3.56
- SOD, Heart [8]: 14.33 ± 5.13
- SOD, Kidney [8]: 16.00 ± 2.37
- SOD, Liver [8]: 15.33 ± 0.86
- SOD, Pancrease [8]: 7.01 ± 0.46
- TBARS formation, Brain [9]: 48.08 ± 3.42
- TBARS formation, Heart [9]: 62.33 ± 4.81
- TBARS formation, Kidney [9]: 56.74 ± 5.07
- TBARS formation, Liver [9]: 80.83 ± 9.17
- TBARS formation, Pancrease [9]: 83.17 ± 7.24
- Glycated Hb [10]: 0.44 ± 0.04 mg/g of Hb
- Hb [10]: 10.06 ± 0.06 g/dL
- Creatinine [11]: 3.18 ± 0.05 mg/dL
- Urea [11]: 45.45 ± 5.25 mg/dL
